“Also recorded” adds a separate entry of the source.
Assays:
[1] = tested on: adult DRG neurons; test: Rescue of dystrophic endballs and axonal growth of adult DRG neurons across an aggrecan gradient (FIG. 1b, c); assay type: cell-based, mice; conditions: for promotion of axonal growth / penetration across an aggrecan gradient / rescue / prevention of dystrophic endball formation: 20 μg/mL, adult DRG neurons on aggrecan gradient, FIG. 1 panel b; for axons invading the aggrecan rim that could pass the rim of aggrecan gradient: FIG. 1 panel c, left, comparable to chondroitinase ABC (C-ABC) digestion of chondroitin sulfate
Procedure: Preparation of an aggrecan gradient spot on coverslip. Glass coverslips were coated with 100 μg/mL PLL overnight at room temperature, rinsed with sterile water and dried completely. Onto the coverslip, 2 μL of an aggrecan (0.4 mg/mL) and laminin (10 μg/mL) mixture in Ca^2+- and Mg^2+-free Hank's balanced salt solution (HBSS) (Invitrogen) was spotted and dried. Then, the coverslip was bathed in laminin ([…]) solution in HBSS until just before (i.e., at least 3 h before) cell plating at 37° C. The laminin solution was subsequently removed, and the cells were plated without allowing the surface of the coverslip to dry.
DRG neuron primary culture. DRGs were dissected out of C57BL/6J (SLC) adult (12-16 weeks) female mice. The roots of isolated DRGs were trimmed in cold HBSS, collected in a centrifuge tube and spun down for 1 min at low speed (500 rpm). Then, the HBSS was removed. The tissues were incubated in collagenase-II (4 mg/mL)/dispase-II (4.67 mg/mL) in HBSS for 15 min at 37° C. After spinning down at low speed, the tissues were rinsed once with pre-warmed culture media consisting of Neurobasal-A (Gibco) with Gluta-MAX (Gibco), Anti-Anti (Gibco) and B-27 (Invitrogen), then spun down and triturated in fresh media. To refine neurons, the cell suspension was carefully overlaid onto 15% bovine serum albumin (BSA) in HBSS and spun down for 5 min at high speed (1000 rpm), and the supernatant was gently removed. The DRG cells were rinsed once and suspended in the media. The DRG cells were plated onto coverslips in the media.
Immunostaining. DRG neurons were fixed in ice-cold methanol for 15 min at −30° C. The fixed samples were then rinsed three times with phosphate buffered saline (PBS) and incubated in a blocking solution containing 5% (v/v) goat serum (Vector) and 0.2% (v/v) Triton-X 100 (Sigma) for 90 min at room temperature. For neuron-specific class III β-tubulin (Tuj1) staining, samples were bathed in 1:1000 mouse monoclonal Tuj1 (Covance, 801201) diluted in PBS containing 2.5% (v/v) normal goat serum overnight at 4° C. After three washes with PBS, neurons were incubated with 1:250 Alexa488-conjugated goat anti-mouse IgG (Molecular Probes, A11001) dissolved in PBS containing 2.5% (v/v) goat serum for 2 h at room temperature.

[2] = tested on: RPTPσ; test: Activation / phosphorylation of RPTPσ by sulfated octasaccharides (Western blot, densitometric analysis, FIG. 1a); assay type: cell-based; conditions: 10 μg/mL, 15 min; FIG. 1 panel a
Procedure: SDS-PAGE and Western blotting. Cells were lysed with Tris-buffered saline (TBS), 1% Triton-X, Complete Mini Protease Inhibitor Cocktail (Roche) and Phostop Phosphatase Inhibitor Cocktail (Roche). Lysates were incubated on ice for 10 min and centrifuged at 20000 g for 10 min at 4° C. Supernatants were mixed with 4×SDS sample buffer and boiled for 5 min.
All samples were run on 5-20% gradient gel (Wako) and transferred to nitrocellulose membranes (GE Healthcare). After blocking with 5% non-fat dry milk or BSA, the membranes were blotted with primary antibodies. Primary antibodies used in this work included anti-EGFR pY1174 (Invitrogen, 44794G), anti-HA (Roche, clone 3F10), 4G10 Platinum (Millipore, 05-1050) and anti-β-actin (Sigma Aldrich, clone AC-15). All primary antibodies were used at 1:1000 dilution. All secondary antibodies conjugated with horseradish peroxidase were from Jackson ImmunoResearch and used at 1:3000 dilution. Membranes were developed with Novex ECL (Invitrogen) or ECL Plus Substrate (Pierce).

Compound | promotion of axonal growth / penetration across an aggrecan gradient [1] | rescue / prevention of dystrophic endball formation [1] | axons invading the aggrecan rim that could pass the rim of aggrecan gradient [1] | activation of RPTPσ (inducing phosphorylation of RPTPσ) [2] | promotion of axonal growth / penetration across an aggrecan gradient ([1]; listed as HS 14) | rescue / prevention of dystrophic endball formation ([1]; listed as HS 14)
5-Aminopentyl (2-deoxy-2-sulfamido-6-O-sulfonato-α-D-glucopyranosyl)-(1→4)-α-L-idopyranosiduronyl-(1→4)-(2-deoxy-2-sulfamido-6-O-sulfonato-α-D-glucopyranosyl)-(1→4)-β-D-glucopyranosiduronyl-(1→4)-(2-deoxy-2-sulfamido-6-O-sulfonato-α-D-glucopyranosyl)-(1→4)-α-L-idopyranosiduronyl-(1→4)-(2-deoxy-2-sulfamido-6-O-sulfonato-α-D-glucopyranosyl)-(1→4)-β-D-glucopyranosiduronate [HS16] | facilitated their penetration across the gradient | prevent formation of dystrophic endballs | Nearly half |  |  | 
NCCCCCO[C@@H]1O[C@H](C(=O)O)[C@@H](O[C@H]2O[C@H](CO)[C@@H](O[C@@H]3O[C@@H](C(=O)O)[C@@H](O[C@H]4O[C@H](CO)[C@@H](O[C@@H]5O[C@H](C(=O)O)[C@@H](O[C@H]6O[C@H](CO)[C@@H](O[C@@H]7O[C@@H](C(=O)O)[C@@H](O[C@H]8O[C@H](CO)[C@@H](O)[C@H](O)[C@H]8NS(=O)(=O)O)[C@H](O)[C@H]7OS(=O)(=O)O)[C@H](O)[C@H]6NS(=O)(=O)O)[C@H](O)[C@H]5OS(=O)(=O)O)[C@H](O)[C@H]4NS(=O)(=O)O)[C@H](O)[C@H]3OS(=O)(=O)O)[C@H](O)[C@H]2NS(=O)(=O)O)[C@H](O)[C@H]1OS(=O)(=O)O [HS14] | promoted axonal growth | rescued dystrophic endball formation | Nearly half | capable of inducing phosphorylation of RPTPσ; also recorded: activated RPTPσ | facilitated their penetration across the gradient | prevent formation of dystrophic endballs
5-Aminopentyl (2-deoxy-2-sulfamido-α-D-glucopyranosyl)-(1→4)-α-L-idopyranosiduronyl-(1→4)-(2-deoxy-2-sulfamido-α-D-glucopyranosyl)-(1→4)-β-D-glucopyranosiduronyl-(1→4)-(2-deoxy-2-sulfamido-α-D-glucopyranosyl)-(1→4)-α-L-idopyranosiduronyl-(1→4)-(2-de oxy-2-sulfamido-α-D-glucopyranosyl)-(1→4)-β-D-glucopyranosiduronate [HS10] |  |  |  | capable of inducing phosphorylation of RPTPσ |  | 

Reference: patent publication US11141428B2, “Octasaccharides and uses thereof” (Academia Sinica, priority 2017, dated 2021)
